Test system: MV-4-11 cells
Test: Gene expression microarray analysis (Affymetrix PrimeView) and GSEA
Assay type: cell-based, human
Set-up: RFU PODN (11730768_x_at) / Fold change /veh PODN (11730768_x_at) / RFU LINC00158 (11744669_a_at) / Fold change /veh LINC00158 (11744669_a_at) / RFU DUSP10 (11751237_a_at) / Fold change /veh DUSP10 (11751237_a_at) / RFU ID3 (11757404_x_at) / Fold change /veh ID3 (11757404_x_at) / RFU PLEKHG5 (11737974_s_at) / Fold change /veh PLEKHG5 (11737974_s_at) / RFU LRRC4B (11730491_at) / Fold change /veh LRRC4B (11730491_at) / RFU GIMAP4 (11747438_a_at) / Fold change /veh GIMAP4 (11747438_a_at) / RFU KRT8 (11758183_x_at) / Fold change /veh KRT8 (11758183_x_at) / RFU CNN1 (11734310_a_at) / Fold change /veh CNN1 (11734310_a_at) / RFU VPS37D (11726825_at) / Fold change /veh VPS37D (11726825_at) / RFU C10orf10 (11716522_x_at) / Fold change /veh C10orf10 (11716522_x_at) / RFU KIR2DL2 /// KIR2DL4 /// KIR2DL5A /// KIR2DL5B /// KIR2DS1 /// KIR2DS2 /// KIR2DS3 /// KIR2DS4 /// KIR3DL3 /// KIR3DL3 /// KIR3DS1 (11738374_at) / Fold change /veh KIR2DL2 /// KIR2DL4 /// KIR2DL5A /// KIR2DL5B /// KIR2DS1 /// KIR2DS2 /// KIR2DS3 /// KIR2DS4 /// KIR3DL3 /// KIR3DL3 /// KIR3DS1 (11738374_at) / RFU C1QL1 (11718748_at) / Fold change /veh C1QL1 (11718748_at) / RFU TMPRSS4 (11747572_a_at) / Fold change /veh TMPRSS4 (11747572_a_at) / RFU HAMP (11756126_x_at) / Fold change /veh HAMP (11756126_x_at) / RFU RNFT2 (11725882_a_at) / Fold change /veh RNFT2 (11725882_a_at) / RFU NR4A2 (11747474_a_at) / Fold change /veh NR4A2 (11747474_a_at) / RFU ABCC12 (11746883_a_at) / Fold change /veh ABCC12 (11746883_a_at) / RFU TMEM136 (11760407_x_at) / Fold change /veh TMEM136 (11760407_x_at) / RFU CLDN22 /// WWC2 (11732394_at) / Fold change /veh CLDN22 /// WWC2 (11732394_at) / RFU HLA-DPB1 (11760878_x_at) / Fold change /veh HLA-DPB1 (11760878_x_at) / RFU SPINT1 (11716480_a_at) / Fold change /veh SPINT1 (11716480_a_at) / RFU GAP43 (11754022_s_at) / Fold change /veh GAP43 (11754022_s_at) / RFU A4GNT (11735810_at) / Fold change /veh A4GNT (11735810_at) / RFU PRB3 (11715151_x_at) / Fold change /veh PRB3 (11715151_x_at) / RFU TUBB4B (11761932_at) / Fold change /veh TUBB4B (11761932_at) / RFU CAPN14 (11732068_a_at) / Fold change /veh CAPN14 (11732068_a_at) / RFU TMCC2 (11721928_a_at) / Fold change /veh TMCC2 (11721928_a_at) / RFU IRGQ (11745062_a_at) / Fold change /veh IRGQ (11745062_a_at) / RFU FAM174B (11720279_a_at) / Fold change /veh FAM174B (11720279_a_at) / RFU TMPRSS4 (11748680_a_at) / Fold change /veh TMPRSS4 (11748680_a_at) / RFU FAM212B (11763350_a_at) / Fold change /veh FAM212B (11763350_a_at) / RFU PLEKHG5 (11743358_a_at) / Fold change /veh PLEKHG5 (11743358_a_at) / RFU ZSCAN30 (11745921_a_at) / Fold change /veh ZSCAN30 (11745921_a_at) / RFU CMKLR1 (11741424_a_at) / Fold change /veh CMKLR1 (11741424_a_at) / RFU LOC101060620 /// MAPK8IP1 (11723275_at) / Fold change /veh LOC101060620 /// MAPK8IP1 (11723275_at) / RFU SPTSSB (11747773_x_at) / Fold change /veh SPTSSB (11747773_x_at) / RFU PRSS12 (11739890_at) / Fold change /veh PRSS12 (11739890_at) / RFU BIN1 (11741810_x_at) / Fold change /veh BIN1 (11741810_x_at) / RFU WNT11 (11732464_a_at) / Fold change /veh WNT11 (11732464_a_at) / RFU C10orf10 (11716521_a_at) / Fold change /veh C10orf10 (11716521_a_at) / RFU C5orf56 (11738089_at) / Fold change /veh C5orf56 (11738089_at) / RFU CYB561 (11721691_x_at) / Fold change /veh CYB561 (11721691_x_at) / RFU ANKRD19P (11752326_a_at) / Fold change /veh ANKRD19P (11752326_a_at) / RFU OR2T12 /// OR2T33 /// OR2T8 (11738714_s_at) / Fold change /veh OR2T12 /// OR2T33 /// OR2T8 (11738714_s_at) / RFU VCAN (11748164_a_at) / Fold change /veh VCAN (11748164_a_at) / RFU JSRP1 (11732532_at) / Fold change /veh JSRP1 (11732532_at) / RFU KRTAP10-11 (11738290_x_at) / Fold change /veh KRTAP10-11 (11738290_x_at) / RFU MYO3A (11730013_a_at) / Fold change /veh MYO3A (11730013_a_at) / RFU EBF3 (11725865_a_at) / Fold change /veh EBF3 (11725865_a_at) / RFU CAMK2N1 (11719241_x_at) / Fold change /veh CAMK2N1 (11719241_x_at) / RFU C5orf56 (11738088_a_at) / Fold change /veh C5orf56 (11738088_a_at) / RFU OLFML3 (11715873_a_at) / Fold change /veh OLFML3 (11715873_a_at) / RFU LOC100653217 /// NTM (11731650_a_at) / Fold change /veh LOC100653217 /// NTM (11731650_a_at) / RFU MAPK11 (11762145_a_at) / Fold change /veh MAPK11 (11762145_a_at) / RFU FIZ1 (11724087_x_at) / Fold change /veh FIZ1 (11724087_x_at) / RFU OASL (11726364_x_at) / Fold change /veh OASL (11726364_x_at) / RFU SOX15 (11748057_x_at) / Fold change /veh SOX15 (11748057_x_at) / RFU CD79A (11719716_a_at) / Fold change /veh CD79A (11719716_a_at) / RFU HIST1H1D (11736915_at) / Fold change /veh HIST1H1D (11736915_at) / RFU CASKIN2 (11723855_a_at) / Fold change /veh CASKIN2 (11723855_a_at) / RFU LOC730098 (11760151_x_at) / Fold change /veh LOC730098 (11760151_x_at) / RFU OR4N2 (11742367_at) / Fold change /veh OR4N2 (11742367_at) / RFU PRRT2 (11749266_a_at) / Fold change /veh PRRT2 (11749266_a_at) / RFU SNX32 (11753110_a_at) / Fold change /veh SNX32 (11753110_a_at) / RFU CDHR5 (11726645_a_at) / Fold change /veh CDHR5 (11726645_a_at) / RFU RCAN1 (11760418_a_at) / Fold change /veh RCAN1 (11760418_a_at) / RFU FAM167A (11723789_a_at) / Fold change /veh FAM167A (11723789_a_at) / RFU FAM26E (11764081_at) / Fold change /veh FAM26E (11764081_at) / RFU ISYNA1 (11749810_s_at) / Fold change /veh ISYNA1 (11749810_s_at) / RFU ACY1 (11761880_at) / Fold change /veh ACY1 (11761880_at) / RFU 11764098_at / Fold change /veh 11764098_at / RFU SAMD14 (11745864_x_at) / Fold change /veh SAMD14 (11745864_x_at) / RFU NPB (11741838_a_at) / Fold change /veh NPB (11741838_a_at) / RFU TMPRSS6 (11731388_a_at) / Fold change /veh TMPRSS6 (11731388_a_at) / RFU KRTAP10-2 (11738614_at) / Fold change /veh KRTAP10-2 (11738614_at) / RFU ARHGAP8 /// PRR5-ARHGAP8 (11727945_x_at) / Fold change /veh ARHGAP8 /// PRR5-ARHGAP8 (11727945_x_at) / RFU KRTAP5-7 /// NADSYN1 (11734609_at) / Fold change /veh KRTAP5-7 /// NADSYN1 (11734609_at) / RFU RASL12 (11751679_a_at) / Fold change /veh RASL12 (11751679_a_at) / RFU CDKN2B (11736163_a_at) / Fold change /veh CDKN2B (11736163_a_at) / RFU PRF1 (11729649_at) / Fold change /veh PRF1 (11729649_at) / RFU, ZNF638 /// ZNF638-IT1 / Fold change vs veh, ZNF638 /// ZNF638-IT1 / RFU, PANK3 / Fold change vs veh, PANK3 / RFU, SH3YL1 / Fold change vs veh, SH3YL1 / RFU, ZEB2 / Fold change vs veh, ZEB2 / RFU, NRIP1 / Fold change vs veh, NRIP1 / RFU, PTTG1IP / Fold change vs veh, PTTG1IP / RFU, CAPN2 / Fold change vs veh, CAPN2 / RFU, MED14 / Fold change vs veh, MED14 / RFU, SNORA58 / Fold change vs veh, SNORA58 / RFU, C1orf63 / Fold change vs veh, C1orf63 / RFU, LRRFIP1 / Fold change vs veh, LRRFIP1 / RFU, NDUFAF7 / Fold change vs veh, NDUFAF7 / RFU, SLC12A2 / Fold change vs veh, SLC12A2 / RFU, IBTK / Fold change vs veh, IBTK / RFU, ESF1 / Fold change vs veh, ESF1 / Fold change vs veh, TMEM50B / RFU, TAOK1 / Fold change vs veh, TAOK1 / RFU, ACBD3 / Fold change vs veh, ACBD3 / RFU, TMA16 / Fold change vs veh, TMA16 / RFU, RWDD3 / Fold change vs veh, RWDD3 / RFU, BCAT1 / Fold change vs veh, BCAT1 / RFU, EDEM3 / Fold change vs veh, EDEM3 / RFU, TMEM33 / Fold change vs veh, TMEM33 / RFU, WDR75 / Fold change vs veh, WDR75 / RFU, AHCTF1 / Fold change vs veh, AHCTF1 / RFU, TFRC / Fold change vs veh, TFRC / RFU, ZDHHC17 / Fold change vs veh, ZDHHC17 / RFU, NOM1 / Fold change vs veh, NOM1 / RFU, ARL8B / Fold change vs veh, ARL8B / RFU, ZBTB11 / Fold change vs veh, ZBTB11 / RFU, TAMM41 / Fold change vs veh, TAMM41 / RFU, KIAA1704 /// LOC100996395 / Fold change vs veh, KIAA1704 /// LOC100996395 / RFU, ING1 / Fold change vs veh, ING1 / RFU, TRMT61B / Fold change vs veh, TRMT61B / RFU, FUBP3 / Fold change vs veh, FUBP3 / RFU, TP53 / Fold change vs veh, TP53 / RFU, TNKS2 / Fold change vs veh, TNKS2 / RFU, ZFP14 / Fold change vs veh, ZFP14 / RFU, ACTR2 / Fold change vs veh, ACTR2 / RFU, PPP3R1 / Fold change vs veh, PPP3R1 / RFU, PIK3R1 / Fold change vs veh, PIK3R1 / RFU, HNRNPA1 / Fold change vs veh, HNRNPA1 / RFU, RNF170 / Fold change vs veh, RNF170 / RFU, ZNF28 / Fold change vs veh, ZNF28 / RFU, RNGTT / Fold change vs veh, RNGTT / RFU, OGT / Fold change vs veh, OGT / RFU, BRD1 / Fold change vs veh, BRD1 / RFU, MARS / Fold change vs veh, MARS / RFU, ZNF655 / Fold change vs veh, ZNF655 / RFU, FAHD1 / Fold change vs veh, FAHD1 / RFU, BDP1 / Fold change vs veh, BDP1 / RFU, LRRCC1 / Fold change vs veh, LRRCC1 / RFU, ARID1A / Fold change vs veh, ARID1A / RFU, ZNF146 / Fold change vs veh, ZNF146 / RFU, ZNF330 / Fold change vs veh, ZNF330 / RFU, GPN3 / Fold change vs veh, GPN3 / RFU, C9orf123 / Fold change vs veh, C9orf123 / RFU, N4BP2L2 / Fold change vs veh, N4BP2L2 / RFU, ARFIP1 / Fold change vs veh, ARFIP1 / RFU, FAM179B / Fold change vs veh, FAM179B / RFU, BCL10 / Fold change vs veh, BCL10 / RFU, UHRF1BP1L / Fold change vs veh, UHRF1BP1L / RFU, BET1 / Fold change vs veh, BET1 / RFU, CNOT2 / Fold change vs veh, CNOT2 / RFU, ZNF268 / Fold change vs veh, ZNF268 / Fold change vs veh, ZNF507 / RFU, DGCR2 / Fold change vs veh, DGCR2 / RFU, WDSUB1 / Fold change vs veh, WDSUB1 / Fold change vs veh, HSP90B1 /// MIR3652 / RFU, ADSS / Fold change vs veh, ADSS / RFU, GK / Fold change vs veh, GK / RFU, ZNF148 / Fold change vs veh, ZNF148 / RFU, TAF9 / Fold change vs veh, TAF9 / RFU, SLC1A5 / Fold change vs veh, SLC1A5 / RFU, SLMO2 / Fold change vs veh, SLMO2 / RFU, ABCC4 / Fold change vs veh, ABCC4 / RFU, LOC101060439 /// RAP1B / Fold change vs veh, LOC101060439 /// RAP1B / RFU, RFX7 / Fold change vs veh, RFX7 / RFU, GTPBP10 / Fold change vs veh, GTPBP10 / RFU, CNEP1R1 / Fold change vs veh, CNEP1R1 / RFU, BIVM-ERCC5 /// ERCC5 / Fold change vs veh, BIVM-ERCC5 /// ERCC5 / RFU, ILF3 / Fold change vs veh, ILF3 / RFU 11762660_at / Fold change /veh 11762660_at / RFU VCAN (11757783_s_at) / Fold change /veh VCAN (11757783_s_at) / RFU DDX43 (11728927_at) / Fold change /veh DDX43 (11728927_at) / RFU KRT8 (11758188_x_at) / Fold change /veh KRT8 (11758188_x_at) / RFU NKD1 (11759106_at) / Fold change /veh NKD1 (11759106_at) / RFU SRD5A1 (11742802_a_at) / Fold change /veh SRD5A1 (11742802_a_at) / RFU TPSAB1 /// TPSB2 (11721975_s_at) / Fold change /veh TPSAB1 /// TPSB2 (11721975_s_at) / RFU GSTM3 (11746129_a_at) / Fold change /veh GSTM3 (11746129_a_at) / RFU IL23R (11737362_x_at) / Fold change /veh IL23R (11737362_x_at) / RFU TMEM51 (11727254_a_at) / Fold change /veh TMEM51 (11727254_a_at) / RFU PIWIL2 (11732686_x_at) / Fold change /veh PIWIL2 (11732686_x_at) / RFU ORM1 (11744905_x_at) / Fold change /veh ORM1 (11744905_x_at) / RFU CCDC152 (11743942_at) / Fold change /veh CCDC152 (11743942_at) / RFU ECM1 (11717891_a_at) / Fold change /veh ECM1 (11717891_a_at) / RFU IL23R (11748794_a_at) / Fold change /veh IL23R (11748794_a_at) / RFU TNFAIP8L3 (11732012_x_at) / Fold change /veh TNFAIP8L3 (11732012_x_at) / RFU MBOAT4 (11741988_at) / Fold change /veh MBOAT4 (11741988_at) / RFU 11764193_at / Fold change /veh 11764193_at / RFU TMEM53 (11763286_at) / Fold change /veh TMEM53 (11763286_at) / RFU MAGEB2 (11727129_at) / Fold change /veh MAGEB2 (11727129_at) / RFU TMEM200A (11744735_a_at) / Fold change /veh TMEM200A (11744735_a_at) / RFU CCDC152 (11751479_a_at) / Fold change /veh CCDC152 (11751479_a_at) / RFU FAM211A (11726209_a_at) / Fold change /veh FAM211A (11726209_a_at) / RFU RGS16 (11746705_a_at) / Fold change /veh RGS16 (11746705_a_at) / RFU VCAN (11755009_s_at) / Fold change /veh VCAN (11755009_s_at) / RFU RHOB (11743442_s_at) / Fold change /veh RHOB (11743442_s_at) / RFU RGS16 (11720943_a_at) / Fold change /veh RGS16 (11720943_a_at) / RFU RGS16 (11720944_at) / Fold change /veh RGS16 (11720944_at) / RFU, VPS4B / Fold change vs veh, VPS4B / RFU, CREB1 / Fold change vs veh, CREB1 / RFU, DNAJC13 / Fold change vs veh, DNAJC13 / RFU, GNAQ / Fold change vs veh, GNAQ / RFU, CDK5R1 / Fold change vs veh, CDK5R1 / RFU, ZRANB3 / Fold change vs veh, ZRANB3 / RFU, CUL4A / Fold change vs veh, CUL4A / RFU, CCNY / Fold change vs veh, CCNY / RFU, UFL1 / Fold change vs veh, UFL1 / RFU, COG3 / Fold change vs veh, COG3 / RFU, DIAPH2 / Fold change vs veh, DIAPH2 / RFU, SKA2 / Fold change vs veh, SKA2 / RFU, AFF3 / Fold change vs veh, AFF3 / RFU, LMF1 / Fold change vs veh, LMF1 / RFU, IPO11 / Fold change vs veh, IPO11 / RFU, DFFB / Fold change vs veh, DFFB / RFU, FOXP1 / Fold change vs veh, FOXP1 / RFU, CARD8 / Fold change vs veh, CARD8 / RFU, STRN3 / Fold change vs veh, STRN3 / RFU, ADK / Fold change vs veh, ADK / RFU, RASSF2 / Fold change vs veh, RASSF2 / RFU, WIPF1 / Fold change vs veh, WIPF1 / RFU, LARP1B / Fold change vs veh, LARP1B / RFU, RASA1 / Fold change vs veh, RASA1 / RFU, RB1 / Fold change vs veh, RB1 / RFU, PPFIA1 / Fold change vs veh, PPFIA1 / RFU, MAT2A / Fold change vs veh, MAT2A / RFU, CCT5 / Fold change vs veh, CCT5 / RFU, WDR92 / Fold change vs veh, WDR92 / RFU, CUX1 / Fold change vs veh, CUX1 / RFU, TTC7A / Fold change vs veh, TTC7A / RFU, TMEM135 / Fold change vs veh, TMEM135 / RFU, DEPTOR / Fold change vs veh, DEPTOR / RFU, CPM / Fold change vs veh, CPM / RFU, DNAJB6 / Fold change vs veh, DNAJB6 / RFU, CACNA2D3 / Fold change vs veh, CACNA2D3 / RFU, DTX4 / Fold change vs veh, DTX4 / RFU, TFCP2 / Fold change vs veh, TFCP2 / RFU, GMCL1 /// GMCL1P1 / Fold change vs veh, GMCL1 /// GMCL1P1 / RFU, AEBP2 / Fold change vs veh, AEBP2 / RFU, SNHG1 /// SNORD22 /// SNORD25 /// SNORD26 /// SNORD27 /// SNORD28 /// SNORD29 /// SNORD31 / Fold change vs veh, SNHG1 /// SNORD22 /// SNORD25 /// SNORD26 /// SNORD27 /// SNORD28 /// SNORD29 /// SNORD31 / Fold change (Aza/veh), C12orf56 (ProbeSet 11735607_a_at) / Fold change (ACY-1035/veh), C12orf56 (ProbeSet 11735607_a_at) / Fold change (Aza/veh), FGFR1OP (ProbeSet 11751329_s_at) / Fold change (ACY-1035/veh), FGFR1OP (ProbeSet 11751329_s_at) / Fold change (Aza/veh), VPS36 (ProbeSet 11739960_a_at) / Fold change (ACY-1035/veh), VPS36 (ProbeSet 11739960_a_at) / RFU SYPL1 (11715823_x_at) / Fold change /veh SYPL1 (11715823_x_at) / RFU IGFBP7 (11715501_s_at) / Fold change /veh IGFBP7 (11715501_s_at) / RFU REEP3 (11722064_at) / Fold change /veh REEP3 (11722064_at) / RFU IGLL1 (11728026_x_at) / Fold change /veh IGLL1 (11728026_x_at): dose or concentration left out as unconfirmed
Settings: ProbeSet 11719493_s_at; LIST B

`Nc1ncn([C@@H]2O[C@H](CO)[C@@H](O)[C@H]2O)c(=O)n1` [azacitidine] was tested, and the “Fold change vs veh, TAF9” value was 1.00.
